Reference: US12150975B2, “Therapeutic combinations to treat red blood cell disorders” (HARTIS-PHARMA SA, priority 2016, dated 2024)

How the values were obtained:
Assay type in all cases: cell-based, human
RBC from healthy control = experiment: RBC sensitivity to cholesterol depletion: hemolysis and membrane deformability by ektacytometry, healthy RBC; conditions: 10 mM methyl-beta-cyclodextrine, 20 min at 37° C.
Protocol: (§1) Blood was collected from four healthy control subjects using citrate as anticoagulant. After low speed centrifugation, the RBC pellet was washed with isotonic phosphate buffered saline (PBS) and re-suspended in PBS (hematocrite 20%).
(§2) To confirm the difference in membrane cholesterol in RBC from SCD compared to healthy subjects, RBC's sensitivity to the cholesterol depleting agent methyl-beta-cyclodextrine was assessed. RBCs were incubated for 20 min at 37° C. in the presence of 2.5 mM or 10 mM methyl-beta-cyclodextrine (Sigma ref. C4555-5G) as described by Motayama et al., 2009, Biol. Pharm. Bull., 32(4) 700-705. RBC membrane deformability was assessed by ektacytometry (Mechatronics) as described by Renoux et al., 2016, Clin Hemorheol Microcirc., 62(2):173-9 at shear rate of 3 Pa and 30 Pa.

RBC from SCD subjects = experiment: RBC sensitivity to cholesterol depletion: hemolysis and membrane deformability by ektacytometry, SCD RBC; conditions: 10 mM methyl-beta-cyclodextrine, 20 min at 37° C., RBC from 4 SCD subjects
Protocol: as §1, §2

[1] = tested on: RBC from healthy subjects; experiment: Reactive oxygen species (ROS) in RBC measured as Median Fluorescence Intensity by flow cytometry; conditions: 20 min incubation
Protocol: Blood was collected from four healthy control subjects using citrate as anticoagulant. After low speed centrifugation, the RBC pellet was washed with isotonic phosphate buffered saline (PBS) and re-suspended in PBS (hematocrite 20%). The RBC were prepared as described in Example 7 and the effect of HDL with or without lutein on the oxidative stress status of RBC was determined using RBC from healthy subjects incubated for 20 min in presence of 100 μM HDL isolated from human plasma (Sigma ref L-1567) in presence or absence of 1 μM or 10 μM lutein (Bertin pharma ref. 1001081). Reactive oxygen species (ROS) were measured as Median Fluorescence Intensity (MFI) by flow cytometry similarly to Amer et al., 2003, Eur J Haematol, 70(2):84-90.

With methyl-beta-cyclodextrine the hemolysis (RBC from healthy control) was “marked hemolysis”, the RBC deformability (RBC from healthy control; ektacytometry at 3 Pa and 30 Pa) was “significant decrease” and the “cholesterol depleting effect and resulting hemolysis” value (RBC from SCD subjects) was “resistant”.

For `CC1=C[C@H](O)CC(C)(C)[C@H]1/C=C/C(C)=C/C=C/C(C)=C/C=C/C=C(C)/C=C/C=C(C)/C=C/C1=C(C)C[C@@H](O)CC1(C)C` [Lutein, lutein], the “decrease in ROS” value ([1]; 1 μM lutein) was 9.2%, the “% change in ROS MFI vs control” value ([1]; Lutein 1 μM) was −9.2% and the “mean MFI (ROS)” value ([1]; Lutein 1 μM) was 38.3. The “% change in ROS MFI vs control” value ([1]; Lutein 10 μM) was −36.4% and the “mean MFI (ROS)” value ([1]; Lutein 10 μM) was 26.8.
